Results as given in PubChem BioAssay AID1918943 (Molecular Pharmacology Branch, DTP, NCI, 2023).
pIC50: −log10 of the molar value. Values joined by “and” are separate entries in the source; they are usually repeats but may differ in a detail not shown here. Equal entries are not always repeated. Each block holds one molecule with its values, some of them ahead of it.

Tested on: 855422-203-R-J1-PDC complex spheroid viability
Experiment: Anticancer human tumor 855422-203-R-J1-PDC patient-derived bladder carcinoma cell line growth inhibition
Conditions: for viability, T/C: stronger effect = lower value
Summary of the method: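 Complex spheroids of tumor cells with HUVEC and human MSCs, exposed to iadademstat combined with other agents. Each agent tested in half-log steps from near clinical Cmax (else 10 microM top), DMSO ≤0.25%.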

[1] = curve of first compound, second compound 0.1 µM
[2] = curve of first compound, second compound 0.316 µM
[3] = curve of first compound, second compound 1 µM
[4] = curve of first compound, second compound 3.16 µM
[5] = curve of first compound, second compound 10 µM
[6] = second compound 0.1 µM, first compound 0.000316 µM
[7] = second compound 0.1 µM, first compound 0.001 µM
[8] = second compound 0.1 µM, first compound 0.00316 µM
[9] = second compound 0.1 µM, first compound 0.01 µM
[10] = second compound 0.1 µM, first compound 0.0316 µM
[11] = second compound 0.1 µM, first compound 0.1 µM
[12] = second compound 0.316 µM, first compound 0.000316 µM
[13] = second compound 0.316 µM, first compound 0.001 µM
[14] = second compound 0.316 µM, first compound 0.00316 µM
[15] = second compound 0.316 µM, first compound 0.01 µM
[16] = second compound 0.316 µM, first compound 0.0316 µM
[17] = second compound 0.316 µM, first compound 0.1 µM
[18] = second compound 1 µM, first compound 0.000316 µM
[19] = second compound 1 µM, first compound 0.001 µM
[20] = second compound 1 µM, first compound 0.00316 µM
[21] = second compound 1 µM, first compound 0.01 µM
[22] = second compound 1 µM, first compound 0.0316 µM
[23] = second compound 1 µM, first compound 0.1 µM
[24] = second compound 3.16 µM, first compound 0.000316 µM
[25] = second compound 3.16 µM, first compound 0.001 µM
[26] = second compound 3.16 µM, first compound 0.00316 µM
[27] = second compound 3.16 µM, first compound 0.01 µM
[28] = second compound 3.16 µM, first compound 0.0316 µM
[29] = second compound 3.16 µM, first compound 0.1 µM
[30] = second compound 10 µM, first compound 0.000316 µM
[31] = second compound 10 µM, first compound 0.001 µM
[32] = second compound 10 µM, first compound 0.00316 µM
[33] = second compound 10 µM, first compound 0.01 µM
[34] = second compound 10 µM, first compound 0.0316 µM
[35] = second compound 10 µM, first compound 0.1 µM
[36] = second compound 0.1 µM, first compound 0.316 µM
[37] = second compound 0.1 µM, first compound 1 µM
[38] = second compound 0.316 µM, first compound 0.316 µM
[39] = second compound 0.316 µM, first compound 1 µM
[40] = second compound 1 µM, first compound 0.316 µM
[41] = second compound 1 µM, first compound 1 µM
[42] = second compound 3.16 µM, first compound 0.316 µM
[43] = second compound 3.16 µM, first compound 1 µM
[44] = second compound 10 µM, first compound 0.316 µM
[45] = second compound 10 µM, first compound 1 µM
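Further: drug exposure lasted 7 days starting on day 3 after seeding.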
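Wherever viability, T/C is given: luminescence viability as percent of DMSO vehicle wells = 100%.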

SMILES: CCN(c1cc(-c2ccc(CN3CCOCC3)cc2)cc(C(=O)NCc2c(C)cc(C)[nH]c2=O)c1C)C1CCOCC1 + NC1CCC(NC2CC2c2ccccc2)CC1
pIC50 [1]: < 5.52
pIC50 [2]: < 5.52
pIC50 [3]: < 5.52
pIC50 [4]: < 5.52
pIC50 [5]: < 5.52
viability, T/C (second compound 0.1 µM, first compound 0.00949 µM): 86.3%
viability, T/C (second compound 0.1 µM, first compound 0.03 µM): 103%
viability, T/C (second compound 0.1 µM, first compound 0.0949 µM): 87%
viability, T/C (second compound 0.1 µM, first compound 0.3 µM): 86.7%
viability, T/C (second compound 0.1 µM, first compound 0.949 µM): 91.4%
viability, T/C (second compound 0.1 µM, first compound 3 µM): 82.9%
viability, T/C (second compound 0.316 µM, first compound 0.00949 µM): 85.3%
viability, T/C (second compound 0.316 µM, first compound 0.03 µM): 95.9%
viability, T/C (second compound 0.316 µM, first compound 0.0949 µM): 96.2%
viability, T/C (second compound 0.316 µM, first compound 0.3 µM): 91.4%
viability, T/C (second compound 0.316 µM, first compound 0.949 µM): 89.9%
viability, T/C (second compound 0.316 µM, first compound 3 µM): 91.1%
viability, T/C (second compound 1 µM, first compound 0.00949 µM): 92.3%
viability, T/C (second compound 1 µM, first compound 0.03 µM): 92.7%
viability, T/C (second compound 1 µM, first compound 0.0949 µM): 93.5%
viability, T/C (second compound 1 µM, first compound 0.3 µM): 88.3%
viability, T/C (second compound 1 µM, first compound 0.949 µM): 86.3%
viability, T/C (second compound 1 µM, first compound 3 µM): 91.8%
viability, T/C (second compound 3.16 µM, first compound 0.00949 µM): 91.3%
viability, T/C (second compound 3.16 µM, first compound 0.03 µM): 90.5%
viability, T/C (second compound 3.16 µM, first compound 0.0949 µM): 83.3%
viability, T/C (second compound 3.16 µM, first compound 0.3 µM): 87.6%
viability, T/C (second compound 3.16 µM, first compound 0.949 µM): 82%
viability, T/C (second compound 3.16 µM, first compound 3 µM): 95.9%
viability, T/C (second compound 10 µM, first compound 0.00949 µM): 84.1%
viability, T/C (second compound 10 µM, first compound 0.03 µM): 82.6%
viability, T/C (second compound 10 µM, first compound 0.0949 µM): 79.4%
viability, T/C (second compound 10 µM, first compound 0.3 µM): 79.5%
viability, T/C (second compound 10 µM, first compound 0.949 µM): 82.7%
viability, T/C (second compound 10 µM, first compound 3 µM): 83.7%

pIC50 (curve of compound): > 9.02
SMILES: CCc1c2c(nc3ccc(O)cc13)-c1cc3c(c(=O)n1C2)COC(=O)[C@]3(O)CC
viability, T/C (compound 0.000949 µM): 14.2% and 14.1%
viability, T/C (compound 0.003 µM): 10.3% and 11.1%
viability, T/C (compound 0.00949 µM): 6.95% and 8.29%
viability, T/C (compound 0.03 µM): 5.21% and 4.8%
viability, T/C (compound 0.0949 µM): 3.58% and 2.82%
viability, T/C (compound 0.3 µM): 1.67% and 10.8%

SMILES: CC[C@@]1(O)C(=O)OCc2c1cc1n(c2=O)Cc2cc3c(CN(C)C)c(O)ccc3nc2-1 + NC1CCC(NC2CC2c2ccccc2)CC1
pIC50 [1]: 8.13
pIC50 [2]: 8.16
pIC50 [3]: 8.12
pIC50 [4]: 8.17
pIC50 [5]: 8.21
viability, T/C [6]: 89.9%
viability, T/C [7]: 93.6%
viability, T/C [8]: 82.5%
viability, T/C [9]: 38.8%
viability, T/C [10]: 27.5%
viability, T/C [11]: 22.9%
viability, T/C [12]: 90.9%
viability, T/C [13]: 83.9%
viability, T/C [14]: 77.7%
viability, T/C [15]: 36.8%
viability, T/C [16]: 24.9%
viability, T/C [17]: 21.2%
viability, T/C [18]: 89.1%
viability, T/C [19]: 80%
viability, T/C [20]: 78.5%
viability, T/C [21]: 39.9%
viability, T/C [22]: 32.6%
viability, T/C [23]: 21.4%
viability, T/C [24]: 77.4%
viability, T/C [25]: 83.5%
viability, T/C [26]: 74.5%
viability, T/C [27]: 37.1%
viability, T/C [28]: 25.5%
viability, T/C [29]: 21.1%
viability, T/C [30]: 79.3%
viability, T/C [31]: 79.2%
viability, T/C [32]: 66%
viability, T/C [33]: 37.2%
viability, T/C [34]: 26.9%
viability, T/C [35]: 15.9%

SMILES: Cn1ncnc1C1c2n[nH]c(=O)c3cc(F)cc(c23)NC1c1ccc(F)cc1 (configuration not stated) + NC1CCC(NC2CC2c2ccccc2)CC1
pIC50 [1]: < 7.00
pIC50 [2]: < 7.00
pIC50 [3]: < 7.00
pIC50 [4]: < 7.00
pIC50 [5]: < 7.00
viability, T/C [6]: 104%
viability, T/C [7]: 94.4%
viability, T/C [8]: 97.1%
viability, T/C [9]: 86.5%
viability, T/C [10]: 78%
viability, T/C [11]: 77.5%
viability, T/C [12]: 90%
viability, T/C [13]: 92.4%
viability, T/C [14]: 84.3%
viability, T/C [15]: 83.9%
viability, T/C [16]: 90.7%
viability, T/C [17]: 82.3%
viability, T/C [18]: 88%
viability, T/C [19]: 86.1%
viability, T/C [20]: 109%
viability, T/C [21]: 86.2%
viability, T/C [22]: 92.9%
viability, T/C [23]: 81.3%
viability, T/C [24]: 89.4%
viability, T/C [25]: 97%
viability, T/C [26]: 109%
viability, T/C [27]: 78.2%
viability, T/C [28]: 77.4%
viability, T/C [29]: 74.8%
viability, T/C [30]: 82.7%
viability, T/C [31]: 78.5%
viability, T/C [32]: 101%
viability, T/C [33]: 70.6%
viability, T/C [34]: 74.6%
viability, T/C [35]: 69.1%

SMILES: O=C(C=Cn1cnc(-c2cc(C(F)(F)F)cc(C(F)(F)F)c2)n1)NNc1cnccn1 + NC1CCC(NC2CC2c2ccccc2)CC1
pIC50 [1]: 7.46
pIC50 [2]: 7.27
pIC50 [3]: 7.34
pIC50 [4]: 7.39
pIC50 [5]: 7.35
viability, T/C [8]: 126%
viability, T/C [9]: 106%
viability, T/C [10]: 49.8%
viability, T/C [11]: 44.6%
viability, T/C [36]: 38.1%
viability, T/C [37]: 28.6%
viability, T/C [14]: 142%
viability, T/C [15]: 98.2%
viability, T/C [16]: 51.2%
viability, T/C [17]: 49.5%
viability, T/C [38]: 39.5%
viability, T/C [39]: 28.1%
viability, T/C [20]: 128%
viability, T/C [21]: 116%
viability, T/C [22]: 54.3%
viability, T/C [23]: 46.6%
viability, T/C [40]: 40%
viability, T/C [41]: 28.4%
viability, T/C [26]: 110%
viability, T/C [27]: 106%
viability, T/C [28]: 52.8%
viability, T/C [29]: 44.3%
viability, T/C [42]: 40.9%
viability, T/C [43]: 27.9%
viability, T/C [32]: 99.1%
viability, T/C [33]: 101%
viability, T/C [34]: 55.5%
viability, T/C [35]: 43.1%
viability, T/C [44]: 37.5%
viability, T/C [45]: 31.9%

SMILES: CC1COCCN1c1cc(C2(S(C)(=N)=O)CC2)nc(-c2ccnc3[nH]ccc23)n1 (configuration not stated) + NC1CC1c1ccc(-c2cccc(O)c2)cc1
pIC50 [1]: 5.56
pIC50 [2]: 5.58
pIC50 [3]: 5.60
pIC50 [4]: 5.64
pIC50 [5]: 5.68
viability, T/C [10]: 93.1%
viability, T/C [11]: 93.2%
viability, T/C [36]: 94.2%
viability, T/C [37]: 74.6%
viability, T/C (second compound 0.1 µM, first compound 3.16 µM): 47.2%
viability, T/C (second compound 0.1 µM, first compound 10 µM): 39.7%
viability, T/C [16]: 102%
viability, T/C [17]: 91.2%
viability, T/C [38]: 97.2%
viability, T/C [39]: 79.9%
viability, T/C (second compound 0.316 µM, first compound 3.16 µM): 44.4%
viability, T/C (second compound 0.316 µM, first compound 10 µM): 43.5%
viability, T/C [22]: 87.9%
viability, T/C [23]: 84.4%
viability, T/C [40]: 93.4%
viability, T/C [41]: 75%
viability, T/C (second compound 1 µM, first compound 3.16 µM): 44.1%
viability, T/C (second compound 1 µM, first compound 10 µM): 40.5%
viability, T/C [28]: 88.4%
viability, T/C [29]: 93.4%
viability, T/C [42]: 97.1%
viability, T/C [43]: 77.2%
viability, T/C (second compound 3.16 µM, first compound 3.16 µM): 39.7%
viability, T/C (second compound 3.16 µM, first compound 10 µM): 38.9%
viability, T/C [34]: 104%
viability, T/C [35]: 87.2%
viability, T/C [44]: 101%
viability, T/C [45]: 75.5%
viability, T/C (second compound 10 µM, first compound 3.16 µM): 34.5%
viability, T/C (second compound 10 µM, first compound 10 µM): 37.7%
